Activity calls are given as the source filed them. For most assays here, no stated cut-off is given here; in the data, actives have a measured Kd and inactives only a lower limit.
Experiments:
[1] = molecular target: Tyrosine-protein kinase FRK (Homo sapiens, UniProt P42685)
[2] = molecular target: Proto-oncogene tyrosine-protein kinase Src (Homo sapiens, UniProt P12931)
[3] = molecular target: Adenylate kinase 2, mitochondrial (Homo sapiens, UniProt P54819)
[4] = molecular target: Mitogen-activated protein kinase 11 (Homo sapiens, UniProt Q15759)
Ephrin type-A receptor 4 = Ephrin type-A receptor 4 (Homo sapiens, UniProt P54764)
[5] = molecular target: Casein kinase I isoform alpha (Homo sapiens, UniProt P48729)
[6] = molecular target: Tyrosine-protein kinase Fyn (Homo sapiens, UniProt P06241)
[7] = molecular target: Fibroblast growth factor receptor 1 (Homo sapiens, UniProt P11362)
[8] = molecular target: Maternal embryonic leucine zipper kinase (Homo sapiens, UniProt Q14680)
[9] = molecular target: Interleukin-1 receptor-associated kinase 1 (Homo sapiens, UniProt P51617)
[10] = molecular target: T1, Structural maintenance of chromosomes protein 1A (Homo sapiens, UniProt Q14683)
T1 sequence (Q14683 whole entry): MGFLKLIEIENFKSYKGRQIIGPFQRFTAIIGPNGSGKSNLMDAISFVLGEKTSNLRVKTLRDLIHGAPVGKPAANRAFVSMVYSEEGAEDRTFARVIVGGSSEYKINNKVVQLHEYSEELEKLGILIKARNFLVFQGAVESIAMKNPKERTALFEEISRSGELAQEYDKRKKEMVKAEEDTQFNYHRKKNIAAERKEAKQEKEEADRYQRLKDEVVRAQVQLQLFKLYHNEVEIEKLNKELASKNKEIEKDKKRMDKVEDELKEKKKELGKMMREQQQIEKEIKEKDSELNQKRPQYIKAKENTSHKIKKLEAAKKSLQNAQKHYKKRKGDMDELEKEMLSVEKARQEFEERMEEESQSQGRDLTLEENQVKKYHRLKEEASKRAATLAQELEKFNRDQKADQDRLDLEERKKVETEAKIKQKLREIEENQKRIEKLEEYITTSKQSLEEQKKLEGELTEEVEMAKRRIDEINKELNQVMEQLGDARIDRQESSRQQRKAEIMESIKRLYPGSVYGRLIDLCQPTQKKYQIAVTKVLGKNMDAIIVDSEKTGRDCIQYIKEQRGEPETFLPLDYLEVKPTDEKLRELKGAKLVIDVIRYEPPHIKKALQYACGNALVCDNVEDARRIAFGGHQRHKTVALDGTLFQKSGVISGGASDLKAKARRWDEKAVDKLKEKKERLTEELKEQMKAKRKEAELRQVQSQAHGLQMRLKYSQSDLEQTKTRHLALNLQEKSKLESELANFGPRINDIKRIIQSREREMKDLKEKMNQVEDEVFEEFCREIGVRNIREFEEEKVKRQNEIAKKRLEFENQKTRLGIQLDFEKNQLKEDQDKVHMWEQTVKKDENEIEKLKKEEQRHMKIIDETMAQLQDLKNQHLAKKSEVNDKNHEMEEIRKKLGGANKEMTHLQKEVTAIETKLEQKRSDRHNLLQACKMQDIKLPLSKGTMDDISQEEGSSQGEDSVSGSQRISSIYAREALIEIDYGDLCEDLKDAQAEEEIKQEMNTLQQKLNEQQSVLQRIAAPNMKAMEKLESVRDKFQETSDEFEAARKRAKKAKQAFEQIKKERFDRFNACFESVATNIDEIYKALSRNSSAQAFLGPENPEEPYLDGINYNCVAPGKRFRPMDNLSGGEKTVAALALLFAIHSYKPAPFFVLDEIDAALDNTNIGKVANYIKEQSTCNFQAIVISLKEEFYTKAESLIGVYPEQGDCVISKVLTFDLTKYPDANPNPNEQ

[11] = molecular target: Serine/threonine-protein kinase MRCK alpha (Homo sapiens, UniProt Q5VT25)
[12] = molecular target: T2, Serine/threonine-protein kinase 3 (Homo sapiens, UniProt Q13188)
T2 sequence (Q13188 whole entry): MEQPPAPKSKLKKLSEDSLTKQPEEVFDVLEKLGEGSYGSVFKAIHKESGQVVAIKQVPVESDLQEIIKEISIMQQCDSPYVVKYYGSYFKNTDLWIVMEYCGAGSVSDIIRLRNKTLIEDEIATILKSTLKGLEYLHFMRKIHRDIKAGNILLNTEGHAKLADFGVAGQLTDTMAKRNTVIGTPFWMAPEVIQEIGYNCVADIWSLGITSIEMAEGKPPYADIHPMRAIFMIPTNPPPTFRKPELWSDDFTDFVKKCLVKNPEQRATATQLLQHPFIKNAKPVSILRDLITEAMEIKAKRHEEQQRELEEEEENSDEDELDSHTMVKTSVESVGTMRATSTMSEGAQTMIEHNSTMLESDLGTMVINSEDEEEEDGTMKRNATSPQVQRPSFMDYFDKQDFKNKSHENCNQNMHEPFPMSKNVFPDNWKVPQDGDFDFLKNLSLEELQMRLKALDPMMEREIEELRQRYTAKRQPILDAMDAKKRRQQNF

[13] = molecular target: Ribosomal protein S6 kinase alpha-4 (Homo sapiens, UniProt O75676)

Measured: Kd

Sequence of Fibroblast growth factor receptor 1 (P11362 whole entry): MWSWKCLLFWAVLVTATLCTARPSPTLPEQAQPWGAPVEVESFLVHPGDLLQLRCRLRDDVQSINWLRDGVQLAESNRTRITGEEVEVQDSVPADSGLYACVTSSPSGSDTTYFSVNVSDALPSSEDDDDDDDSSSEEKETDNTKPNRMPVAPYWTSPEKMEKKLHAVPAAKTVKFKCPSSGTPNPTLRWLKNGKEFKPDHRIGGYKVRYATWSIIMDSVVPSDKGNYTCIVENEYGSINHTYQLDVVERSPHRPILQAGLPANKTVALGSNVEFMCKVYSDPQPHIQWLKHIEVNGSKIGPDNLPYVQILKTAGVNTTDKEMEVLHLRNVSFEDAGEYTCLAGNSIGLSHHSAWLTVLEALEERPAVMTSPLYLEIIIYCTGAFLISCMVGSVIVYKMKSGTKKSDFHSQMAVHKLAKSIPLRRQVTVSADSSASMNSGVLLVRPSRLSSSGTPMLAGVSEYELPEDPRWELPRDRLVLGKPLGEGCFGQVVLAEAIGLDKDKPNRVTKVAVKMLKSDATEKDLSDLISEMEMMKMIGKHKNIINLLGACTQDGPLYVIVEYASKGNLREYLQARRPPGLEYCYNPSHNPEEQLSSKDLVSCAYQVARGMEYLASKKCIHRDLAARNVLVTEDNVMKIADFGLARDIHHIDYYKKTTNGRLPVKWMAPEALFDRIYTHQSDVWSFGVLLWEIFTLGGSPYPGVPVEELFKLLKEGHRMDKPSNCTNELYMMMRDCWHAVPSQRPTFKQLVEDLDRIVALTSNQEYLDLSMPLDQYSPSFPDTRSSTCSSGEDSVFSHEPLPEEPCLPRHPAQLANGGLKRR
Sequence of Casein kinase I isoform alpha (P48729 whole entry, canonical isoform): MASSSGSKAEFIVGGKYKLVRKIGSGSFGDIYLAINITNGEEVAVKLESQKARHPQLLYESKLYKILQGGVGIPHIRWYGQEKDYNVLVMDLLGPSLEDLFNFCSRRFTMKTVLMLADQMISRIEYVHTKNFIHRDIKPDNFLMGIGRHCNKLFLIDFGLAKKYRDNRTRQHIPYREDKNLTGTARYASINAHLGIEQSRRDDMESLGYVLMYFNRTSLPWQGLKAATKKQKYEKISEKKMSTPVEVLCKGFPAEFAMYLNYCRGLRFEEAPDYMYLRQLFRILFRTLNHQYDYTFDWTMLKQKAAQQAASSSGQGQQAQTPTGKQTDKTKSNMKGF
Sequence of Ephrin type-A receptor 4 (P54764 whole entry, canonical isoform): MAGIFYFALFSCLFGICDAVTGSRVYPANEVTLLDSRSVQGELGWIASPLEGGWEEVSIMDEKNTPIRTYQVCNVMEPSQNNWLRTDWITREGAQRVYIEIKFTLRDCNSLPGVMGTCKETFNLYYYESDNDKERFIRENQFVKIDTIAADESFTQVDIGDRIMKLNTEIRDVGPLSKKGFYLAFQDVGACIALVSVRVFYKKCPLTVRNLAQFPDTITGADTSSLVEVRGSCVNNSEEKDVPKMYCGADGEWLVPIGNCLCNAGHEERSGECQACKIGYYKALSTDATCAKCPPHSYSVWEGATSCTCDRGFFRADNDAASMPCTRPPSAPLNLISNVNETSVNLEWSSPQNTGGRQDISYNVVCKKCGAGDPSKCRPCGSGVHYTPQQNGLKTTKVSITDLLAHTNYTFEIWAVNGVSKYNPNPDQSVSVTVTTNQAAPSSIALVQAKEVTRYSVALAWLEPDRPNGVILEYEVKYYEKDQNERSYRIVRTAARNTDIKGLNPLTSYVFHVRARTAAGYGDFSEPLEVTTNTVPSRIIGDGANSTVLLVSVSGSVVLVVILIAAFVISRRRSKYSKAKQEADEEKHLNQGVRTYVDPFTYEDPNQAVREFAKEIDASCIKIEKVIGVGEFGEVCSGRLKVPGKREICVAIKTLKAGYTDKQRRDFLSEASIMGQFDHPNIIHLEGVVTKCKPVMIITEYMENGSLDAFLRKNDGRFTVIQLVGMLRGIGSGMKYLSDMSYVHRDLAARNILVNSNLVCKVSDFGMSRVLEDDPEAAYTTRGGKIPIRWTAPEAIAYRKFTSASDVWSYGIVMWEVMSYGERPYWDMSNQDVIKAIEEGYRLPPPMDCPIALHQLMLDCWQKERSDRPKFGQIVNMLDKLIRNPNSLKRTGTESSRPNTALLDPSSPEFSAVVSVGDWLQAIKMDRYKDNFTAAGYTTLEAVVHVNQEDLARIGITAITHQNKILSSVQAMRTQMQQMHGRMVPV
Sequence of Interleukin-1 receptor-associated kinase 1 (P51617 whole entry): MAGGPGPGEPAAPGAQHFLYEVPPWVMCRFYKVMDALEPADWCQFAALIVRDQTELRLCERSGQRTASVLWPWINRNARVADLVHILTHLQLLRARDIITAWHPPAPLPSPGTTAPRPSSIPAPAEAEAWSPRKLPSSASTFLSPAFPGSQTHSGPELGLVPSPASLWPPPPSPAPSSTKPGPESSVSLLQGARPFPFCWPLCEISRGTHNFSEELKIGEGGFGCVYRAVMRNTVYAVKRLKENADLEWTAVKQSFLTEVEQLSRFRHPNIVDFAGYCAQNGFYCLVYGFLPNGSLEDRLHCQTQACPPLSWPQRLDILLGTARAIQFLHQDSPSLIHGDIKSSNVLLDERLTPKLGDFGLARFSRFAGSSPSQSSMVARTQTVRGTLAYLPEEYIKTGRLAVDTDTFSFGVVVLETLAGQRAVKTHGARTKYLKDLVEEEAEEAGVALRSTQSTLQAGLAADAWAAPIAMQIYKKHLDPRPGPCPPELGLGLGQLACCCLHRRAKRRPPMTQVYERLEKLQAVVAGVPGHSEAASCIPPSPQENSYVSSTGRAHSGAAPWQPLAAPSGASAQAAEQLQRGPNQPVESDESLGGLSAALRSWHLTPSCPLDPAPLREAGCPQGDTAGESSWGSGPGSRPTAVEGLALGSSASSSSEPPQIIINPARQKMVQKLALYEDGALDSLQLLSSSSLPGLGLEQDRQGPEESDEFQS
Sequence of Tyrosine-protein kinase FRK (P42685 whole entry): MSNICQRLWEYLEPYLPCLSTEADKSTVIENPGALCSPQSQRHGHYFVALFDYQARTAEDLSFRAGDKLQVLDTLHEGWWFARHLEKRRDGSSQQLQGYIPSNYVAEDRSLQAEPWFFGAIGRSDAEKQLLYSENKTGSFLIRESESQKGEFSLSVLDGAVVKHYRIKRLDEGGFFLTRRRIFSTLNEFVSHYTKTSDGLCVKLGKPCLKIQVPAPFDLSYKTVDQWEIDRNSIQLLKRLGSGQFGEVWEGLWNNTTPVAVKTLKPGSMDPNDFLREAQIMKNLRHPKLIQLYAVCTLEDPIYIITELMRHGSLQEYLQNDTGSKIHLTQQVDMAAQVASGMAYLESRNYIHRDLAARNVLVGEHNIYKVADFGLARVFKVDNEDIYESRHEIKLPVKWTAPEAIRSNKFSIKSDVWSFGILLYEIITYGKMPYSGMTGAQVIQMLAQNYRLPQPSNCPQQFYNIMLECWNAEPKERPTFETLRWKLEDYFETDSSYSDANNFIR
Sequence of Serine/threonine-protein kinase MRCK alpha (Q5VT25 whole entry): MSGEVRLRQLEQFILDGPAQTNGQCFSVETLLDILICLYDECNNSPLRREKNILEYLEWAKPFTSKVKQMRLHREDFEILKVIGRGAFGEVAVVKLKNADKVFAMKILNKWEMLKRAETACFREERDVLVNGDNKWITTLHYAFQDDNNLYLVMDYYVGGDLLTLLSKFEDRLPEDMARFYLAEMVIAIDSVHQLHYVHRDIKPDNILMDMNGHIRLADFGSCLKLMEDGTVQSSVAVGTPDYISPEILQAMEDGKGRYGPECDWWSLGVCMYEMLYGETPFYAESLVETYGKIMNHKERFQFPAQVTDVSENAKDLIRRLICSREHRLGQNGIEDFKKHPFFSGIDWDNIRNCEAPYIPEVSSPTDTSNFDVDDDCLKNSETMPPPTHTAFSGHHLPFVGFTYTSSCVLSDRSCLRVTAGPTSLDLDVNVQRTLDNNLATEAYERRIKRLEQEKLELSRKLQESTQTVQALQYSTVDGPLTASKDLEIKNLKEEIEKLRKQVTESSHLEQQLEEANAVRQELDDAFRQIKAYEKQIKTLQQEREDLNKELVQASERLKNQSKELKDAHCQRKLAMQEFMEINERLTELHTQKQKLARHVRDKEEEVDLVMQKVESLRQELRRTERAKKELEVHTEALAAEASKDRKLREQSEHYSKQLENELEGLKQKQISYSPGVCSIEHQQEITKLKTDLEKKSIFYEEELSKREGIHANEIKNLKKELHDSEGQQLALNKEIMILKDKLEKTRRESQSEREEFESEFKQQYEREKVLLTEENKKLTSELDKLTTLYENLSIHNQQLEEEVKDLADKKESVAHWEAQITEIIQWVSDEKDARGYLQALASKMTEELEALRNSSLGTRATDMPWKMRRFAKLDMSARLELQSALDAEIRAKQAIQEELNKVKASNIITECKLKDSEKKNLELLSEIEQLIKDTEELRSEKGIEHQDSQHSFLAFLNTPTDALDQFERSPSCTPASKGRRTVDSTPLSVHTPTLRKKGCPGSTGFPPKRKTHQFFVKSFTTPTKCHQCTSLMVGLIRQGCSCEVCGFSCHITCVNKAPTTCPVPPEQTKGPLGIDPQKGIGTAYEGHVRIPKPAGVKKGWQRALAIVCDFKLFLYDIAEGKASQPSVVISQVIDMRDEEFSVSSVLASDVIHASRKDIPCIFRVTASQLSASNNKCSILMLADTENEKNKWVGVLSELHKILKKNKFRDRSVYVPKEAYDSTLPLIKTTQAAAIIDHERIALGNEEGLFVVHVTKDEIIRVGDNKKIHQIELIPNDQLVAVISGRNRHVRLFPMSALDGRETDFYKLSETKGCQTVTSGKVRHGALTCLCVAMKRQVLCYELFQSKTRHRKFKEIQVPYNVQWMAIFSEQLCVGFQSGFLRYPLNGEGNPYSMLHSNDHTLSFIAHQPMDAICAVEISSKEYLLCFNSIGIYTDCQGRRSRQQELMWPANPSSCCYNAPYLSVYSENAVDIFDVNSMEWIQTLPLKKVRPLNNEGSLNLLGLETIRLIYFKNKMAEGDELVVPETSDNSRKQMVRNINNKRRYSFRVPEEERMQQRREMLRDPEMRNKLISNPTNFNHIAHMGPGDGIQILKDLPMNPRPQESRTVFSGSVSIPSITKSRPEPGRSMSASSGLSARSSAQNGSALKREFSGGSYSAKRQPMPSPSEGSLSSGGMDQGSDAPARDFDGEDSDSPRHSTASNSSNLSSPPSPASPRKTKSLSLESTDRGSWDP

Cn1c(=O)c(F)c(Nc2ccc(I)cc2F)c2c(=O)n(C[C@@H](O)CO)cnc21 [TAK-733]
inactive: [1] > 30 µM | [2] > 30 µM | [3] > 30 µM | [4] > 30 µM | Ephrin type-A receptor 4 > 30 µM | [5] > 30 µM | [6] > 30 µM | [7] > 30 µM | [8] > 30 µM | [9] > 30 µM | [10] > 30 µM | [11] > 30 µM | [12] > 30 µM | [13] > 30 µM

COc1cc2ncnc3c2cc1OCCCCCN(C)Cc1ccc(Br)cc1N3 [JNJ-26483327]
inactive: [1] > 30 µM | [2] > 30 µM | [3] > 30 µM | [4] > 30 µM | Ephrin type-A receptor 4 > 30 µM | [5] > 30 µM | [6] > 30 µM | [7] > 30 µM | [8] > 30 µM | [9] > 30 µM | [10] > 30 µM | [11] > 30 µM | [12] > 30 µM | [13] > 30 µM

COc1cc2ncnc(Nc3ccc(F)c(Cl)c3)c2cc1NC(=O)/C=C/CN1CCCCC1 [DACOMITINIB ANHYDROUS]
inactive: [1] > 30 µM | [2] > 30 µM | [3] > 30 µM | [4] > 30 µM | Ephrin type-A receptor 4 > 30 µM | [5] > 30 µM | [6] > 30 µM | [7] > 30 µM | [8] > 30 µM | [9] > 30 µM | [11] > 30 µM | [12] > 30 µM | [13] > 30 µM

C#Cc1cccc(Nc2ncnc3cc4c(cc23)OCCOCCOCCO4)c1 [ICOTINIB]
inactive: [1] > 30 µM | [2] > 30 µM | [3] > 30 µM | [4] > 30 µM | Ephrin type-A receptor 4 > 30 µM | [5] > 30 µM | [6] > 30 µM | [7] > 30 µM | [8] > 30 µM | [9] > 30 µM | [10] > 30 µM | [11] > 30 µM | [12] > 30 µM | [13] > 30 µM

Cc1cc(C(=O)Nc2cc(Oc3ccc4nc(NC(=O)C5CC5)cn4n3)ccc2C)n(C)n1 [TAK-593]
inactive: [1] > 30 µM | [2] > 30 µM | [3] > 30 µM | [4] > 30 µM | Ephrin type-A receptor 4 > 30 µM | [5] > 30 µM | [6] > 30 µM | [7] > 30 µM | [8] > 30 µM | [9] > 30 µM | [10] > 30 µM | [11] > 30 µM | [12] > 30 µM | [13] > 30 µM

COc1cc2ncnc(Nc3ccc(O)cc3)c2cc1OC [WHI-P131]
inactive: [1] > 30 µM | [2] > 30 µM | [3] > 30 µM | [4] > 30 µM | Ephrin type-A receptor 4 > 30 µM | [5] > 30 µM | [6] > 30 µM | [7] > 30 µM | [8] > 30 µM | [9] > 30 µM | [10] > 30 µM | [11] > 30 µM | [12] > 30 µM | [13] > 30 µM

Reference: ChEMBL document CHEMBL3991601, “The target landscape of clinical kinase drugs” (Science, 2017)
